Test results from ChEMBL document CHEMBL1201862, “PubChem BioAssay data set” (2004).
Where “and” joins values, the source holds several entries; their conditions need not be identical. Equal entries are not always repeated.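 In this assay, cells in 96-well plates receive the compound at five concentrations for 48 hours. Endpoints are linearly interpolated between the surrounding concentrations. At the GI50, growth is halved.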 Calls of active or inactive are those of the source. Cut-off read from the data, not from the text of the source: active = GI50 up to about 1.1 µM and inactive = higher.

Experiments:
Assay in all cases: growth of human tumour cells (NCI), 48 h
SK-MEL-28 = system: SK-MEL-28
HCC 2998 = system: HCC 2998
RPMI-8226 = system: RPMI-8226
A498 = system: A498
SF-295 = system: SF-295
HOP-92 = system: HOP-92
OVCAR-5 = system: OVCAR-5
SNB-75 = system: SNB-75
OVCAR-8 = system: OVCAR-8
CAKI-1 = system: CAKI-1
UACC-257 = system: UACC-257
DU-145 = system: DU-145
NCI-H522 = system: NCI-H522
HCT-15 = system: HCT-15
SN12C = system: SN12C
Malme-3M = system: Malme-3M
HL-60 = system: HL-60
MDA-MB-231 = system: MDA-MB-231
Hs-578T = system: Hs-578T
OVCAR-4 = system: OVCAR-4

Row | SMILES | GI50 (SK-MEL-28) | GI50 (HCC 2998) | GI50 (RPMI-8226) | GI50 (A498) | GI50 (SF-295) | GI50 (HOP-92) | GI50 (OVCAR-5) | GI50 (SNB-75) | GI50 (OVCAR-8) | GI50 (CAKI-1) | GI50 (UACC-257) | GI50 (DU-145) | GI50 (NCI-H522) | GI50 (HCT-15) | GI50 (SN12C) | GI50 (Malme-3M) | GI50 (HL-60) | GI50 (MDA-MB-231) | GI50 (Hs-578T) | GI50 (OVCAR-4)
1 | Cc1ccc2ccccc2c1CSc1nc(N)nc2c1ncn2CC(C)C | 55.8 µM (inactive) | 19.3 µM (inactive) | 5.65 µM (inactive) | 26.9 µM (inactive) | 5.86 µM (inactive) | 17.8 µM (inactive) | 96.2 µM (inactive) | 43.3 µM (inactive) | 40.4 µM (inactive) | 17 µM (inactive) | 11.7 µM (inactive) | 82.4 µM (inactive) | 8.71 µM (inactive) | 10.9 µM | 40 µM (inactive) | 9.31 µM (inactive) | 16.2 µM (inactive) | > 30.9 µM (inactive) | > 35.2 µM (inactive) | 11.1 µM (inactive)
2 | CC[C@@]1(O)C(=O)OCc2c1cc1n(c2=O)Cc2cc3c(NC(=O)CN)cccc3nc2-1 | 7.05 µM (inactive) | 1.96 µM (inactive) | 1.88 µM (inactive) | 0.481 µM (active) | 0.115 µM (active) | 3.48 µM (inactive) | 7.8 µM (inactive) | 0.0733 µM (active) | 0.392 µM (active) | < 0.01 µM (active) | 1.43 µM (inactive) | 0.065 µM (active) | 0.277 µM (active) | 8.13 µM | < 0.0115 µM (active) | 1.41 µM (inactive) | < 0.0362 µM (active) | 14.5 µM (inactive) | > 36.2 µM (inactive) | 4.51 µM (inactive)
3 | CN(C)c1ccc(/C=C/c2cc[n+](C)c3ccccc23)cc1 | 5.32 µM (inactive) | 6.32 µM (inactive) | 2.95 µM (inactive) | 15.1 µM (inactive) | 3.84 µM (inactive) | 2.96 µM (inactive) | 6.43 µM (inactive) | 3.45 µM (inactive) | 1.53 µM (inactive) | 2.79 µM (inactive) | 1.2 µM (inactive) | 5.6 µM (inactive) | 1.98 µM (inactive) | 29.9 µM | 3.44 µM (inactive) | 4.51 µM (inactive) | 0.748 µM (active) | 5.94 µM (inactive) | 2.74 µM (inactive) | 5.05 µM (inactive)
4 | Cc1cc(-c2nc3ccc(F)cc3s2)ccc1NC(=O)C(N)CCCCN (stereo not drawn) | 18.4 µM (inactive) | 1.26 µM (inactive) | 3.31 µM (inactive) | 11 µM (inactive) | 6.93 µM (inactive) | 8.2 µM (inactive) | 7.64 µM (inactive) | 4.83 µM (inactive) | 5.97 µM (inactive) | 9.64 µM (inactive) | 12.8 µM (inactive) | 12.3 µM (inactive) | 5.9 µM (inactive) | 9.08 µM | 7.76 µM (inactive) | 18.2 µM (inactive) | 2.9 µM (inactive) | 9.38 µM (inactive) | 5.12 µM (inactive) | 8.28 µM (inactive)
5 | COC(=O)C1OC(O[C@H]2CC[C@]3(C)[C@H]4CC=C5[C@@H]6CC(C)(C)CC[C@]6(C(=O)OC6OCC(O)C(O)C6OC6OC(C)C(OC7OCC(O)C(OC8OCC(O)C(O)C8O)C7O)C(OC7OCC(O)C(O)C7O)C6O)CC[C@@]5(C)[C@]4(C)CC[C@H]3C2(C)C)C(O)C(OC2OCC(O)C(O)C2O)C1O (stereo partly drawn) | 2.37 µM (inactive) and 2.07 µM (inactive) | 1.78 µM (inactive) and 1.67 µM (inactive) | 2.62 µM (inactive) and 4.37 µM (inactive) | 1.94 µM (inactive) and 1.66 µM (inactive) | 5.19 µM (inactive) and 3.39 µM (inactive) | 2.19 µM (inactive) and 2.25 µM (inactive) | 5.31 µM (inactive) and 4.75 µM (inactive) | – | 13.2 µM (inactive) and 10.4 µM (inactive) | 5.24 µM (inactive) and 4.84 µM (inactive) | 3.17 µM (inactive) and 2.91 µM (inactive) | 5.79 µM (inactive) and 9.29 µM (inactive) | 1.95 µM (inactive) and 1.77 µM (inactive) | 14.1 µM and 27.4 µM | 2.25 µM (inactive) and 2.31 µM (inactive) | 3.61 µM (inactive) and 5.04 µM (inactive) | 2.28 µM (inactive) and 1.97 µM (inactive) | 2.73 µM (inactive) and 3.51 µM (inactive) | 16.1 µM (inactive) and 19.7 µM (inactive) | 6.61 µM (inactive) and 5.24 µM (inactive)
6 | CC1(C)CCCCCCCCCC(C)(CCCCCCCCCCCCO)C1=O (stereo not drawn) | 18.2 µM (inactive) | 0.655 µM (active) | 18.7 µM (inactive) | 18.7 µM (inactive) | 16.2 µM (inactive) | 16.9 µM (inactive) | 18.5 µM (inactive) | 16.1 µM (inactive) | 14.5 µM (inactive) | 20.7 µM (inactive) | 16.2 µM (inactive) | 17.7 µM (inactive) | 16.5 µM (inactive) | 21.7 µM | 17.4 µM (inactive) | 16.4 µM (inactive) | 15.7 µM (inactive) | 15.3 µM (inactive) | 19.7 µM (inactive) | 17.1 µM (inactive)
7 | CC1OC(n2cnc3c(N)nc(Cl)nc32)C(C)(O)C1O (stereo not drawn) | – | > 25 µM (inactive) | > 25 µM (inactive) | > 25 µM (inactive) | > 25 µM (inactive) | > 25 µM (inactive) | > 25 µM (inactive) | 1.41 µM (inactive) | 19.8 µM (inactive) | > 25 µM (inactive) | > 25 µM (inactive) | > 25 µM (inactive) | > 25 µM (inactive) | > 25 µM | > 25 µM (inactive) | > 25 µM (inactive) | > 25 µM (inactive) | > 25 µM (inactive) | > 25 µM (inactive) | > 25 µM (inactive)
8 | CC(C)(CCCCC(C)(C)NCC1COc2ccccc2O1)NCC1COc2ccccc2O1 (stereo not drawn) | 2.16 µM (inactive) | 2.42 µM (inactive) | > 10 µM (inactive) | > 10 µM (inactive) | 9.95 µM (inactive) | 2.19 µM (inactive) | > 10 µM (inactive) | 9.38 µM (inactive) | > 10 µM (inactive) | > 10 µM (inactive) | 2.04 µM (inactive) | > 10 µM (inactive) | 5.51 µM (inactive) | 7.98 µM | > 10 µM (inactive) | 3.15 µM (inactive) | > 10 µM (inactive) | 3.54 µM (inactive) | 5.66 µM (inactive) | > 10 µM (inactive)
9 | COCn1cnc2c(=O)n(-c3ccc(C)cc3)c(=S)n(-c3ccc(C)cc3)c21 | > 100 µM (inactive) | > 100 µM (inactive) | > 100 µM (inactive) | > 100 µM (inactive) | > 100 µM (inactive) | 71.8 µM (inactive) | > 100 µM (inactive) | 6.98 µM (inactive) | > 100 µM (inactive) | > 100 µM (inactive) | > 100 µM (inactive) | > 100 µM (inactive) | > 100 µM (inactive) | > 100 µM | > 100 µM (inactive) | > 100 µM (inactive) | > 100 µM (inactive) | > 100 µM (inactive) | > 100 µM (inactive) | > 100 µM (inactive)
10 | CSc1c(C#N)c(N)nc2c(/N=N\c3ccc(Br)cc3)c(N)nn12 | 10.7 µM (inactive) | 8.87 µM (inactive) | 9.84 µM (inactive) | 24 µM (inactive) | 8.63 µM (inactive) | 6.81 µM (inactive) | 16.6 µM (inactive) | 10.6 µM (inactive) | 5.85 µM (inactive) | 12.6 µM (inactive) | 8.05 µM (inactive) | 6.14 µM (inactive) | 6.41 µM (inactive) | 3.5 µM | 6.65 µM (inactive) | 8.69 µM (inactive) | 2.82 µM (inactive) | 6.97 µM (inactive) | 2.37 µM (inactive) | 7.21 µM (inactive)
11 | O=C1CCCC1C(O)(C(F)(F)F)C(F)(F)F (stereo not drawn) | > 100 µM (inactive) | > 100 µM (inactive) | > 100 µM (inactive) | > 100 µM (inactive) | > 100 µM (inactive) | > 100 µM (inactive) | > 100 µM (inactive) | > 100 µM (inactive) | > 100 µM (inactive) | > 100 µM (inactive) | > 100 µM (inactive) | > 100 µM (inactive) | > 100 µM (inactive) | > 100 µM | > 100 µM (inactive) | > 100 µM (inactive) | > 100 µM (inactive) | > 100 µM (inactive) | > 100 µM (inactive) | > 100 µM (inactive)
12 | COc1ccccc1-c1cc(=O)c2ccc(OC)c(OC)c2o1 | > 100 µM (inactive) | 52.8 µM (inactive) | 47.6 µM (inactive) | 37.8 µM (inactive) | 40.8 µM (inactive) | 28.2 µM (inactive) | > 100 µM (inactive) | 70.5 µM (inactive) | 54.6 µM (inactive) | > 100 µM (inactive) | 44.9 µM (inactive) | 55.5 µM (inactive) | 32.8 µM (inactive) | 41.4 µM | 63.1 µM (inactive) | 92.5 µM (inactive) | 27.5 µM (inactive) | > 100 µM (inactive) | 41.7 µM (inactive) | 38.4 µM (inactive)
13 | CN(C)CCN1Nc2c3ccccc3nc3c(C(=O)NCCCN(C)CCCNC(=O)c4ccc5c6c(c7ccccc7nc46)NN5CCN(C)C)ccc1c23 | 0.0498 µM (active) | < 0.01 µM (active) | < 0.01 µM (active) | 0.0659 µM (active) | < 0.01 µM (active) | 0.305 µM (active) | 0.0322 µM (active) | < 0.01 µM (active) | < 0.01 µM (active) | 0.199 µM (active) | 0.0224 µM (active) | 0.0217 µM (active) | < 0.01 µM (active) | 0.178 µM | < 0.01 µM (active) | < 0.01 µM (active) | 0.012 µM (active) | 0.0581 µM (active) | 0.0352 µM (active) | 0.0266 µM (active)
